Reference: ChEMBL document CHEMBL1157448, “Antimycotic activity of 4-thioisosteres of flavonoids towards yeast and yeast-like microorganisms” (2008)

Assays:
Type in all cases: functional
Papiliotrema laurentii [1] = assay: Antimycotic activity against Cryptococcus laurentii DBVPG 6265 by agar diffusion disk bioassay
Saccharomyces cerevisiae [2] = assay: Antimycotic activity against Saccharomyces cerevisiae DBVPG 6173 by agar diffusion disk bioassay
Candida albicans [3] = assay: Antimycotic activity against Candida albicans DBVPG 6133 by agar diffusion disk bioassay
Papiliotrema laurentii [4] = assay: Antimycotic activity against Cryptococcus laurentii DBVPG 4272 by agar diffusion disk bioassay
Saccharomyces cerevisiae [5] = assay: Antimycotic activity against Saccharomyces cerevisiae DBVPG 6500 by agar diffusion disk bioassay
Clavispora lusitaniae = assay: Antimycotic activity against Clavispora lusitaniae DBVPG 6142 by agar diffusion disk bioassay
Candida albicans [6] = assay: Antimycotic activity against Candida albicans DBVPG 6157 by agar diffusion disk bioassay
Papiliotrema laurentii [7] = assay: Antimycotic activity against Cryptococcus laurentii DBVPG 3883 by agar diffusion disk bioassay
Prototheca wickerhamii = assay: Antimycotic activity against Prototheca wickerhamii DBVPG 8879 by agar diffusion disk bioassay
Kluyveromyces marxianus = assay: Antimycotic activity against Kluyveromyces marxianus DBVPG 6141 by agar diffusion disk bioassay
Cryptococcus neoformans [8] = assay: Antimycotic activity against Filobasidiella neoformans DBVPG 6982 by agar diffusion disk bioassay
Cryptococcus neoformans [9] = assay: Antimycotic activity against Filobasidiella neoformans DBVPG 3428 by agar diffusion disk bioassay
Cryptococcus neoformans [10] = assay: Antimycotic activity against Filobasidiella neoformans DBVPG 6981 by agar diffusion disk bioassay
Yarrowia lipolytica = assay: Antimycotic activity against Yarrowia lipolytica DBVPG 6053 by agar diffusion disk bioassay
Cryptococcus neoformans [11] = assay: Antimycotic activity against Filobasidiella neoformans DBVPG 6225 by agar diffusion disk bioassay
Cryptococcus neoformans [12] = assay: Antimycotic activity against Filobasidiella neoformans DBVPG 6010 by agar diffusion disk bioassay
[Candida] zeylanoides = Antimycotic activity against Candida zeylanoides DBVPG 6163 by agar diffusion disk bioassay
Nakaseomyces glabratus = assay: Antimycotic activity against Candida glabrata DBVPG 7212 by agar diffusion disk bioassay
[13] = system: Meyerozyma guilliermondii; assay: Antimycotic activity against Pichia guilliermondii DBVPG 6140 by agar diffusion disk bioassay
Pichia kudriavzevii = assay: Antimycotic activity against Issatchenkia orientalis DBVPG 6782 by agar diffusion disk bioassay
Candida tropicalis = assay: Antimycotic activity against Candida tropicalis DBVPG 3982 by agar diffusion disk bioassay

In the case of `COc1ccc(C2CSc3c(O)cc(O)cc3O2)cc1` (stereo not given), the inhibition zone (IZ) (Papiliotrema laurentii [1]) is reported as 13.3 mm, the inhibition zone (IZ) (Saccharomyces cerevisiae [2]) is reported as 15.1 mm and the inhibition zone (IZ) (Candida albicans [3]) is reported as 12.4 mm. It also gave an inhibition zone (IZ) (Papiliotrema laurentii [4]) of 17.5 mm and an inhibition zone (IZ) (Saccharomyces cerevisiae [5]) of 14.7 mm.

`COc1cc(OC)c2c(c1)OC(c1ccc(O)c(O)c1)CS2` (stereo not given) showed an inhibition zone (IZ) (Clavispora lusitaniae) of 13.9 mm, an inhibition zone (IZ) (Papiliotrema laurentii [1]) of 2.6 mm and an inhibition zone (IZ) (Candida albicans [6]) of 12.1 mm. For the same compound, the inhibition zone (IZ) (Papiliotrema laurentii [7]) was 13.1 mm, the inhibition zone (IZ) (Saccharomyces cerevisiae [2]) was 14.6 mm and the inhibition zone (IZ) (Prototheca wickerhamii) was 14.5 mm. For the same compound, the inhibition zone (IZ) (Papiliotrema laurentii [4]) was 19.3 mm, the inhibition zone (IZ) (Saccharomyces cerevisiae [5]) was 14.9 mm and the inhibition zone (IZ) (Kluyveromyces marxianus) was 14.9 mm.

Compound `COc1ccc(C2CSc3ccc(O)cc3O2)cc1` (stereo not given) has an inhibition zone (IZ) (Papiliotrema laurentii [1]) of 16.8 mm, an inhibition zone (IZ) (Candida albicans [6]) of 14.1 mm and an inhibition zone (IZ) (Cryptococcus neoformans [8]) of 12.9 mm. The inhibition zone (IZ) (Cryptococcus neoformans [9]) was 14.6 mm, the inhibition zone (IZ) (Papiliotrema laurentii [4]) was 26.4 mm and the inhibition zone (IZ) (Cryptococcus neoformans [10]) was 14.2 mm. It also gave an inhibition zone (IZ) (Yarrowia lipolytica) of 15.6 mm, an inhibition zone (IZ) (Saccharomyces cerevisiae [5]) of 20.6 mm and an inhibition zone (IZ) (Cryptococcus neoformans [11]) of 14.9 mm. It also gave an inhibition zone (IZ) (Cryptococcus neoformans [12]) of 18.1 mm.

Work on `COc1ccc(C2CSc3cc(O)ccc3O2)cc1` (stereo not given) yielded an inhibition zone (IZ) (Papiliotrema laurentii [4]) of 22 mm and an inhibition zone (IZ) (Cryptococcus neoformans [12]) of 13.6 mm.

Compound `Oc1ccc(C2CSc3ccc(O)cc3O2)cc1` (stereo not given) has an inhibition zone (IZ) ([Candida] zeylanoides) of 16.4 mm, an inhibition zone (IZ) (Clavispora lusitaniae) of 12.4 mm and an inhibition zone (IZ) (Papiliotrema laurentii [1]) of 17.8 mm. For the same compound, the inhibition zone (IZ) (Candida albicans [6]) was 18.3 mm, the inhibition zone (IZ) (Nakaseomyces glabratus) was 13.1 mm and the inhibition zone (IZ) [13] was 17.2 mm. It also gave an inhibition zone (IZ) (Papiliotrema laurentii [7]) of 22.6 mm, an inhibition zone (IZ) (Saccharomyces cerevisiae [2]) of 15.6 mm and an inhibition zone (IZ) (Candida albicans [3]) of 16.2 mm. It also gave an inhibition zone (IZ) (Pichia kudriavzevii) of 14 mm, an inhibition zone (IZ) (Prototheca wickerhamii) of 17.8 mm and an inhibition zone (IZ) (Candida tropicalis) of 15.5 mm. For the same compound, the inhibition zone (IZ) (Cryptococcus neoformans [9]) was 17.4 mm, the inhibition zone (IZ) (Papiliotrema laurentii [4]) was 28.5 mm and the inhibition zone (IZ) (Cryptococcus neoformans [10]) was 15.6 mm. It also gave an inhibition zone (IZ) (Yarrowia lipolytica) of 16.5 mm, an inhibition zone (IZ) (Saccharomyces cerevisiae [5]) of 19.2 mm and an inhibition zone (IZ) (Cryptococcus neoformans [11]) of 17 mm. It also gave an inhibition zone (IZ) (Cryptococcus neoformans [12]) of 15.5 mm.

With `Oc1ccc(C2CSc3cc(O)ccc3O2)cc1` (stereo not given) the inhibition zone (IZ) (Clavispora lusitaniae) was 12.9 mm, the inhibition zone (IZ) (Papiliotrema laurentii [1]) was 16.9 mm and the inhibition zone (IZ) (Papiliotrema laurentii [7]) was 13.8 mm. It also gave an inhibition zone (IZ) (Saccharomyces cerevisiae [2]) of 15.2 mm, an inhibition zone (IZ) (Papiliotrema laurentii [4]) of 16.4 mm and an inhibition zone (IZ) (Yarrowia lipolytica) of 14.3 mm. The inhibition zone (IZ) (Cryptococcus neoformans [11]) was 11.2 mm and the inhibition zone (IZ) (Cryptococcus neoformans [12]) was 15.5 mm.

In the case of `COc1ccc2c(c1)OC(c1ccc(O)cc1)CS2` (stereo not given), the inhibition zone (IZ) ([Candida] zeylanoides) is reported as 19.4 mm, the inhibition zone (IZ) (Clavispora lusitaniae) is reported as 15.3 mm and the inhibition zone (IZ) (Papiliotrema laurentii [1]) is reported as 20.6 mm. For the same compound, the inhibition zone (IZ) (Candida albicans [6]) was 16.5 mm, the inhibition zone (IZ) (Papiliotrema laurentii [7]) was 18.2 mm and the inhibition zone (IZ) (Saccharomyces cerevisiae [2]) was 24.1 mm. It also gave an inhibition zone (IZ) (Candida albicans [3]) of 17.5 mm, an inhibition zone (IZ) (Pichia kudriavzevii) of 17.6 mm and an inhibition zone (IZ) (Prototheca wickerhamii) of 20.7 mm. The inhibition zone (IZ) (Candida tropicalis) was 20.2 mm, the inhibition zone (IZ) (Cryptococcus neoformans [9]) was 20 mm and the inhibition zone (IZ) (Papiliotrema laurentii [4]) was 30.2 mm. For the same compound, the inhibition zone (IZ) (Cryptococcus neoformans [10]) was 25.1 mm, the inhibition zone (IZ) (Yarrowia lipolytica) was 15.8 mm and the inhibition zone (IZ) (Saccharomyces cerevisiae [5]) was 18.3 mm. For the same compound, the inhibition zone (IZ) (Cryptococcus neoformans [11]) was 18.4 mm and the inhibition zone (IZ) (Cryptococcus neoformans [12]) was 35.1 mm.
